Legend:
p110α Type Ia human PI3K = molecular target: T1, p110α Type Ia human PI3K (Homo sapiens, UniProt P42336); assay: In vitro PI3K enzyme assay (AlphaScreen), Test (a); format: biochemical; conditions: read-out: IC50 versus p110α Type Ia human PI3K
T1 construct: full length DNA of each of the p110α, p110β and p110δ Type Ia human PI3K p110 isoforms; 6-His; made in house; Grp1 PH domain made in E. coli
Description: The assay used AlphaScreen technology (Gray et al., Analytical Biochemistry, 2003, 313: 234-245) to determine the ability of test compounds to inhibit phosphorylation by recombinant Type I PI3K enzymes of the lipid PI(4,5)P2.
DNA fragments encoding human PI3K catalytic and regulatory subunits were isolated from cDNA libraries using standard molecular biology and PCR cloning techniques. The selected DNA fragments were used to generate baculovirus expression vectors. In particular, full length DNA of each of the p110α, p110β and p110δ Type Ia human PI3K p110 isoforms (EMBL Accession Nos. HSU79143, S67334, Y10055 for p110α, p110β and p110δ respectively) were sub-cloned into a pDEST10 vector (Invitrogen Limited, Fountain Drive, Paisley, UK). The vector is a Gateway-adapted version of Fastbac 1 containing a 6-His epitope tag. […]
Biotinylated-DiC8-PI(3,4,5)P3 (50 nM; Cell Signals Inc., Catalogue No. 107), recombinant purified GST-Grp1 PH protein (2.5 nM) and AlphaScreen Anti-GST donor and acceptor beads (100 ng; Packard Bioscience Limited, Station Road, Pangbourne, Berkshire, UK, Catalogue No. 6760603M) were added and the assay plates were left for about 5 to 20 hours at room temperature in the dark. The resultant signals arising from laser light excitation at 680 nm were read using a Packard AlphaQuest instrument. […]

[1] = system: phosphorylation of Serine 473 in Akt in MDA-MB-468 human breast adenocarcinoma cell line; assay: In vitro phospho-Ser473 Akt assay, Test (c); format: cell-based; conditions: MDA-MB-468 cells, read-out: IC50 (inhibition of Serine 473 phosphorylation in Akt)
Procedure: This assay determines the ability of test compounds to inhibit phosphorylation of Serine 473 in Akt as assessed using Acumen Explorer technology (TTP LabTech Limited, Royston, Herts, SG8 6EE, UK), a plate reader that can be used to rapidly quantitate features of images generated by laser-scanning.
A MDA-MB-468 human breast adenocarcinoma cell line (LGC Promochem, Teddington, Middlesex, UK, Catalogue No. HTB-132) was routinely maintained at 37° C. with 5% CO2 up to a confluency of 70-90% in DMEM containing 10% FCS and 1% L-glutamine.
For the assay, the cells were detached from the culture flask using ‘Accutase’ (Innovative Cell Technologies Inc., San Diego, Calif., USA; Catalogue No. AT104) using standard tissue culture methods and resuspended in media to give 5.5×10^4 cells per ml. Aliquots (90 μl) were seeded into each of the inner 60 wells of a black ‘Costar’ 96-well plate (Corning Inc., NY, USA; Catalogue No. 3904) to give a density of ˜5000 cells per well. Aliquots (90 μl) of culture media were placed in the outer wells to prevent edge effects. [An alternative cell handling procedure involved the maintenance of the cells in a ‘SelecT’ robotic device (The Automation Partnership, Royston, Herts SG8 5WY, UK). Cells were resuspended in media to give 5×10^4 cells per ml. Aliquots (100 μl) were seeded into the wells of a black ‘Costar’ 96-well plate.] […]

T1 sequence (P42336 whole entry, the tested form may be a part, canonical isoform): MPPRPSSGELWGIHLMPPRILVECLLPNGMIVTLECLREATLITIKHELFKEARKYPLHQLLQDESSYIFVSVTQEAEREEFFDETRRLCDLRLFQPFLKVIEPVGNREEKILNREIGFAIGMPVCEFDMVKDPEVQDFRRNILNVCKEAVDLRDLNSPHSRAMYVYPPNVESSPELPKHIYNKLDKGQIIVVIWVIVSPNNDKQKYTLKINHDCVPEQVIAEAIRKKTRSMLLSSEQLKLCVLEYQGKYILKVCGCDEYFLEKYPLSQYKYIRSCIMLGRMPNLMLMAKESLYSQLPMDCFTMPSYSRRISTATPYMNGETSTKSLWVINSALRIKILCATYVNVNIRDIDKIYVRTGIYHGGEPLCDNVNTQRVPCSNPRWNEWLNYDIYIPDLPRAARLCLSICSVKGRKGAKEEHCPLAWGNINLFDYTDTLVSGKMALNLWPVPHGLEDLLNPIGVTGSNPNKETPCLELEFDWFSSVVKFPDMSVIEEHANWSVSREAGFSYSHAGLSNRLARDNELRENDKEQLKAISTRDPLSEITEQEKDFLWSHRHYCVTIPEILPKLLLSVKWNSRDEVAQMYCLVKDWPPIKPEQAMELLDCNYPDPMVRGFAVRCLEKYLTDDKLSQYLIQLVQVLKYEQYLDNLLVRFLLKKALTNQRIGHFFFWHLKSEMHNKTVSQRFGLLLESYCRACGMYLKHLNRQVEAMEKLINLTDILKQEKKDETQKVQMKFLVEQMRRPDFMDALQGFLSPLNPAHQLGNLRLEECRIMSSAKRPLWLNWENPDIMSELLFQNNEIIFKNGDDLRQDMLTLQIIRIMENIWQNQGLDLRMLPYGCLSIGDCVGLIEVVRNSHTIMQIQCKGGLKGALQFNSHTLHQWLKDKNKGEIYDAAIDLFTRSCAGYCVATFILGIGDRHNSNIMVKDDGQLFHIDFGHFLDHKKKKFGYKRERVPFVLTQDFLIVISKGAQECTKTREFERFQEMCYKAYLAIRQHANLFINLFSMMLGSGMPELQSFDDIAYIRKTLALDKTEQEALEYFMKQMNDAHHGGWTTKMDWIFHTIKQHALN
T1 sequence (P27986 whole entry partner, the tested form may be a part, canonical isoform): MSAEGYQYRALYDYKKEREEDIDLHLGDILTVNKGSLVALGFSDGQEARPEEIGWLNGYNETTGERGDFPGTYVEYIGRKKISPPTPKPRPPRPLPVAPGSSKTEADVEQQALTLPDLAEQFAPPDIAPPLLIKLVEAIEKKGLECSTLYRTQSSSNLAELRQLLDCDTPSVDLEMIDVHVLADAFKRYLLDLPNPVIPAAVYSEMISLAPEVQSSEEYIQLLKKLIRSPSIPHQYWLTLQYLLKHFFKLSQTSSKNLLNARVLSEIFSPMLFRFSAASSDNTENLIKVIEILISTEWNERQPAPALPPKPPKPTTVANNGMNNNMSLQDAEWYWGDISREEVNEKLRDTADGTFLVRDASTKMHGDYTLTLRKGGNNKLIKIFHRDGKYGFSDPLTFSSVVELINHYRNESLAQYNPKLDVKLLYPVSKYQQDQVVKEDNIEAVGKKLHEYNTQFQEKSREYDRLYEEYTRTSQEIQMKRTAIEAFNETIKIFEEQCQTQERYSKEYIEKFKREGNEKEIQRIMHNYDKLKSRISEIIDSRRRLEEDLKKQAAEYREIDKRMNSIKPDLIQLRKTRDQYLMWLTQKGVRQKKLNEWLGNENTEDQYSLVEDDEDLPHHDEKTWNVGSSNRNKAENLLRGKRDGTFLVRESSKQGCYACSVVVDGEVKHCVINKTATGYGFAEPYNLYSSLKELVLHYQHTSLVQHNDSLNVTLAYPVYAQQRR

SMILES: NCC(=O)N1CCN(c2cc(N3CCOCC3)nc(-n3c(C(F)F)nc4ccccc43)n2)CC1 [Example 1, 2-(2-difluoromethylbenzimidazol-1-yl)-4-(4-glycylpiperazin-1-yl)-6-morpholinopyrimidine]
- IC50 (p110α Type Ia human PI3K): ~0.1 µM
- IC50 [1]: ~0.01 µM
